Assay results as given in ChEMBL document CHEMBL5518186, “Discovery of the cereblon-recruiting tubulin PROTACs effective in overcoming Taxol resistance in vitro and in vivo” (Eur J Med Chem, 2024).
The source made the active and inactive calls. The calls are words filed in the database; no cut-off is given here.

Legend:
[1] = molecular target: T1, Protein cereblon/Tubulin beta-3 chain (Homo sapiens, UniProt Q13509+Q96SW2); test: Protac activity at CRBN/beta3-tubulin in human A549 cells assessed as reduction in beta3-tubulin level at 0.25 uM pretreated with pomalidomide for 2 hrs followed by compound addition and measured after 24 hrs by immunoblotting analysis; assay type: cell-based
[2] = molecular target: T1, Protein cereblon/Tubulin beta-3 chain; test: Protac activity at CRBN/beta3-tubulin in human A549 cells assessed as reduction in beta3-tubulin level at 0.01 to 1 uM incubated for 48 hrs by immunoblotting analysis; assay type: cell-based; conditions: dose 0.01-1 µM
A549/TR [3] = test: Inhibition of colony formation in human A549/Taxol cells incubated for 24 hrs followed by media replacement at every 3 days for 14 days by crystal violet staining based assay; assay type: functional, cell-based; conditions: dose 2-50 nM, time 14.0 day
A549/TR [4] = test: Induction of cell cycle arrest in human A549/Taxol cells assessed as accumulation of cells at G2/M phase at 0.002 uM incubated for 24 hrs by PI staining based flow cytometry analysis (reference value: 17.02%); assay type: functional
A549 [5] = test: Induction of cell cycle arrest in human A549 cells assessed as accumulation of cells at S phase at 0.01 uM incubated for 24 hrs by PI staining based flow cytometry analysis (reference value: 1.39%); assay type: functional
[6] = molecular target: T1, Protein cereblon/Tubulin beta-3 chain; test: Protac activity at CRBN/beta3-tubulin in human MGC-803 cells assessed as reduction in beta3-tubulin level at 10 to 1000 nM incubated for 48 hrs by immunoblotting analysis; assay type: cell-based; conditions: dose 10-1000 nM
[7] = molecular target: T2, Protein cereblon-alpha tubulin (Homo sapiens) (UniProt P0DPH7+P68366+Q71U36+P68363+Q9BQE3+Q6PEY2+A6NHL2+Q9NY65+Q96SW2); test: Protac activity at CRBN/alpha-tubulin in human A549/Taxol cells assessed as reduction in alpha-tubulin level at 0.25 uM pretreated with CA-4 for 2 hrs followed by compound addition and measured after 48 hrs by immunoblotting analysis; assay type: cell-based
[8] = molecular target: T3, Protein cereblon/Tubulin beta (Homo sapiens) (UniProt P68371+Q9H4B7+Q13509+P04350+Q3ZCM7+P07437+Q13885+Q9BVA1+Q9BUF5+Q96SW2+A6NNZ2); test: Protac activity at CRBN/beta-tubulin in human A549 cells assessed as reduction in beta-tubulin level at 0.25 uM by immunoblotting analysis; assay type: cell-based; conditions: time 6-72 hrs, TDE = time-dependent effect
[9] = molecular target: T2, Protein cereblon-alpha tubulin (Homo sapiens); test: Protac activity at CRBN/alpha-tubulin in human HepG2 cells assessed as reduction in alpha-tubulin level at 10 to 1000 nM incubated for 48 hrs by immunoblotting analysis; assay type: cell-based; conditions: dose 10-1000 nM
[10] = molecular target: T3, Protein cereblon/Tubulin beta (Homo sapiens); test: Protac activity at CRBN/beta-tubulin in human A549 cells assessed as reduction in beta-tubulin level at 0.25 uM pretreated with CA-4 for 2 hrs followed by compound addition and measured after 24 hrs by immunoblotting analysis; assay type: cell-based
A549/TR [11] = test: Inhibition of cell growth in human A549/Taxol cells incubated for 72 hrs by SRB method; assay type: functional, cell-based
A549 [12] = test: Induction of apoptosis in human A549 cells assessed as increase in apoptotic rate at 0.002 uM incubated for 48 hrs by Annexin V-FITC/PI staining based flow cytometry analysis (reference value: 1.3%); assay type: functional
[13] = molecular target: T3, Protein cereblon/Tubulin beta (Homo sapiens); test: Protac activity at CRBN/beta-tubulin in human A549 cells assessed as reduction in beta-tubulin level at 0.01 to 1 uM incubated for 48 hrs by immunoblotting analysis; assay type: cell-based; conditions: dose 0.01-1 µM
[14] = molecular target: T2, Protein cereblon-alpha tubulin (Homo sapiens); test: Protac activity at CRBN/alpha-tubulin in human A549 cells assessed as reduction in alpha-tubulin level at 0.25 uM pretreated for 48 hrs followed by compound washout and measured upto 24 hrs by immunoblotting analysis; assay type: cell-based
A549 [15] = test: Induction of cell cycle arrest in human A549 cells assessed as accumulation of cells at G0/G1 phase at 0.05 uM incubated for 24 hrs by PI staining based flow cytometry analysis (reference value: 66.75%); assay type: functional
[16] = molecular target: T3, Protein cereblon/Tubulin beta (Homo sapiens); test: Protac activity at CRBN/beta-tubulin in human MCF7 cells assessed as reduction in beta-tubulin level at 10 to 1000 nM incubated for 48 hrs by immunoblotting analysis; assay type: cell-based; conditions: dose 10-1000 nM
HUVEC = test: Antiangiogenic activity in HUVECs assessed as reduction in tube length at 2.5 nM incubated for 6 to 8 hrs by inverted microscopic analysis; assay type: functional, cell-based; conditions: Homo sapiens, time 6-8 hrs
A549/TR [17] = test: Induction of cell cycle arrest in human A549/Taxol cells assessed as accumulation of cells at G0/G1 phase at 0.002 uM incubated for 24 hrs by PI staining based flow cytometry analysis (reference value: 77.86%); assay type: functional
[18] = molecular target: T1, Protein cereblon/Tubulin beta-3 chain; test: Protac activity at CRBN/beta3-tubulin in human A549 cells assessed as reduction in beta3-tubulin level at 0.25 uM by immunoblotting analysis; assay type: cell-based; conditions: time 6-72 hrs, TDE = time-dependent effect
[19] = molecular target: T2, Protein cereblon-alpha tubulin (Homo sapiens); test: Protac activity at CRBN/alpha-tubulin in human MGC-803 cells assessed as reduction in alpha-tubulin level at 10 to 1000 nM incubated for 48 hrs by immunoblotting analysis; assay type: cell-based; conditions: dose 10-1000 nM
A549 [20] = test: Antitumor activity against human A549 cells xenografted in nude mouse assessed as decrease in tumor volume at 15 mg/kg, ip administered once every 2 days for 23 days by Vernier caliper method; assay type: functional, organism-based; conditions: time 23.0 day
HepG2 = test: Induction of DNA damage in human HepG2 cells assessed as gamma-H2AX level; assay type: functional, cell-based
[21] = Toxicity in nude mouse xenografted with human A549/Taxol cells assessed as body weight loss at 15 mg/kg, ip administered once every 2 days for 23 days and measured every 3 days; assay type: organism-based, A549/TR; conditions: in vivo, 552 h, time 23 day
[22] = molecular target: T2, Protein cereblon-alpha tubulin (Homo sapiens); test: Protac activity at CRBN/alpha-tubulin in human A549 cells assessed as reduction in alpha-tubulin level at 0.01 to 1 uM incubated for 48 hrs by immunoblotting analysis; assay type: cell-based; conditions: dose 0.01-1 µM
[23] = Toxicity in nude mouse xenografted with human A549 cells assessed as body weight loss at 15 mg/kg, ip administered once every 2 days for 23 days and measured every 3 days; assay type: organism-based; conditions: in vivo, 552 h, time 23 day
A549/TR [24] = test: Induction of cell cycle arrest in human A549/Taxol cells assessed as accumulation of cells at G2/M phase at 0.05 uM incubated for 24 hrs by PI staining based flow cytometry analysis (reference value: 17.02%); assay type: functional
A549/TR [25] = test: Induction of cell cycle arrest in human A549/Taxol cells assessed as accumulation of cells at S phase at 0.01 uM incubated for 24 hrs by PI staining based flow cytometry analysis (reference value: 2.85%); assay type: functional
Tubulin (Homo sapiens) = Tubulin (Homo sapiens) (UniProt P68371+Q9H4B7+P0DPH7+P68366+Q13509+Q71U36+P04350+Q3ZCM7+P07437+P68363+Q9BQE3+Q6PEY2+Q13885+Q9BVA1+Q9BUF5); test: Inhibition of microtubule polymerization in human HepG2 cells by immunofluorescence assay; assay type: cell-based
[26] = molecular target: T3, Protein cereblon/Tubulin beta (Homo sapiens); test: Protac activity at CRBN/beta-tubulin in human A549 cells assessed as reduction in beta-tubulin level at 0.25 uM after 48 hrs by immunoblotting analysis; assay type: cell-based; design: scale not given: the % may be the effect or the level left
A549 [27] = test: Inhibition of cell growth in human A549 cells incubated for 72 hrs by SRB method; assay type: functional, cell-based
[28] = Resistance index, ratio of IC50 for human MCF7/Taxol cells to IC50 for human MCF7 cells; assay type: functional

T1 sequence (Q13509 whole entry, looked up): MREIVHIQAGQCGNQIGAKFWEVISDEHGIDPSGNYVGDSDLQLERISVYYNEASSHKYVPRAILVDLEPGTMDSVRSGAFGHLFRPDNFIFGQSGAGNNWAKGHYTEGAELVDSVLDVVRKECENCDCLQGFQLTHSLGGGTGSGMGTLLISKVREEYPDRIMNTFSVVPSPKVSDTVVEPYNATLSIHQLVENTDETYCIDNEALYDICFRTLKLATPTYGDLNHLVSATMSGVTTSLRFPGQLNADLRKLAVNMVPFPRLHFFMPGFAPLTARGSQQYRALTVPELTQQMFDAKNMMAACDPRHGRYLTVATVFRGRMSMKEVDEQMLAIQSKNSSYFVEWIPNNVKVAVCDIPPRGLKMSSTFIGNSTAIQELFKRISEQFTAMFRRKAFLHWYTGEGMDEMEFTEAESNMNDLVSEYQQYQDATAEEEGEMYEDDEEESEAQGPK
T1 sequence (Q96SW2 whole entry, looked up): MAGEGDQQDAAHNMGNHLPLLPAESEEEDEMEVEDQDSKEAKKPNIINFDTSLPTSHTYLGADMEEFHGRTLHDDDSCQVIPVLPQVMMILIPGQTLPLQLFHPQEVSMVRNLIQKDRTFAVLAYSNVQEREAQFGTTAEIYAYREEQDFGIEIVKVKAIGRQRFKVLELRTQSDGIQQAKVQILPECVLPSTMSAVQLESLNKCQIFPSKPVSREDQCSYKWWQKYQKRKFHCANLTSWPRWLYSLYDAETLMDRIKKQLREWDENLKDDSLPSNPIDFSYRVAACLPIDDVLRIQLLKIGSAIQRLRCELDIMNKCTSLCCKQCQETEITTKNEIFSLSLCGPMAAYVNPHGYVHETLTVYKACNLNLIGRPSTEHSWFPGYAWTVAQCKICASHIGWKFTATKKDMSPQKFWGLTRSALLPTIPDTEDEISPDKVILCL

With `COc1ccc(/C=C\c2cc(OC)c(OC)c(OC)c2)cc1OC(=O)CCCNc1cccc2c1C(=O)N(C1CCC(=O)NC1=O)C2=O` (stereo not drawn) the Activity [1] was “inactive”, the Activity [2] was “Active” and the inhibition (A549/TR [3]) was “Dose-Dependent Effect”. The Activity (A549/TR [4]) was 23.69%, the Activity (A549 [5]) was 15.35% and the Activity [6] was “Active”. The Activity [7] was “inactive”, the Activity [8] was “Tde” and the Activity [9] was “Active”. For the same compound, the Activity [10] was “inactive”, the IC50 (A549/TR [11]) was 5 nM and the inhibition (A549/TR [11]) was “Dose-Dependent Effect”. For the same compound, the Activity (A549 [12]) was 7.23%, the Activity [13] was “Active” and the Activity [14] was “Active”. The Activity (A549 [15]) was 10.15%, the Activity [16] was “Active” and the Activity (HUVEC) was “Active”. The Activity (A549/TR [17]) was 67.61%, the Activity [18] was “Tde” and the Activity [19] was “Active”. For the same compound, the Activity (A549 [20]) was “Active”, the Activity (HepG2) was “Active” and the Activity [21] was “Non-Toxic”. For the same compound, the Activity [22] was “Active”, the Activity [23] was “Non-Toxic” and the Activity (A549/TR [24]) was 66.57%. For the same compound, the Activity (A549/TR [25]) was 10.77%, the inhibition (Tubulin (Homo sapiens)) was “Active” and the Activity [26] was 31.1%. For the same compound, the inhibition (A549 [27]) was “Dose-Dependent Effect”, the IC50 (A549 [27]; A549, 72 h) was 10 nM and the “Ratio IC50” value [28] was 0.5.
